# Test results reported in patent US5798336A, “Antimicrobial peptides” (priority 1995, dated 1998).
# Where a SMILES comes first, the peptide text is derived from it.
# Key:
# P. aeruginosa ATCC 27853 = settings: Table 7A; RP-HPLC-purified peptides 500 μg/ml
# S. aureus strain 8325-4 [1] = settings: strain 8325-4, 500
# [2] = tested on: P. aeruginosa clinical isolates; assay type: cell-based, Pseudomonas aeruginosa; settings: four independent clinical isolates
# Source text: P. aeruginosa ATCC 27853 (American Type Culture Collection, Rockville, Md.) is the strain used for testing antimicrobial activity against P. aeruginosa unless otherwise noted. It is a standardized strain for antibiotic-susceptibility testing of pseudomonads (see, e.g., Code of Federal Regulations, Title 21, Part 460, 1987). […] Agents effective against P. aeruginosa are needed in the art because multiple antibiotic resistance is quite common among clinical strains, and therefore resultant infections are often difficult to treat.
# ^1 3-5 × 10^7 CFU/ml of the designated strains were exposed
# to 500 μg/ml of HPLCpurified peptides in 1/100 strength BHSS (10 mm
# sodium phosphate, pH 7.0, 10 mM NaCl.
# [3] = tested on: N. gonorrhoeae strain FA 102
# S. aureus = assay type: cell-based, Staphylococcus aureus; settings: Table 11; 50 μg/ml; 1% TSB, 2 h at 37° C.
# P. aeruginosa = test: Bactericidal capacity of cathepsin G in 1% TSB, P. aeruginosa; assay type: cell-based, Pseudomonas aeruginosa; settings: Table 11, 50 μg/ml, 2 h at 37° C.
# S. aureus strain 8325-4 [4] = settings: for % Survival of S. aureus: Table 3, all peptides at 5×10^-4 M
compound,measurement,setting,value
CC[C@H](C)[C@H](NC(=O)[C@H](Cc1c[nH]c2ccccc12)NC(=O)[C@@H]1CCCN1C(=O)[C@H](CC(C)C)NC(=O)[C@H](Cc1ccccc1)NC(=O)[C@H](CO)NC(=O)[C@H](CO)NC(=O)[C@@H](NC(=O)[C@H](Cc1ccccc1)NC(=O)[C@H](CCCNC(=N)N)NC(=O)[C@@H](NC(=O)[C@H](Cc1ccccc1)NC(=O)[C@@H](NC(=O)[C@H](CCC(=O)O)NC(=O)[C@@H]1CCCN1C(=O)[C@@H]1CCCN1C(=O)[C@@H](NC(=O)CNC(=O)[C@H](CO)NC(=O)[C@H](CO)NC(=O)[C@H](CCCCN)NC(=O)CN)C(C)C)C(C)C)[C@@H](C)O)C(C)C)C(=O)N[C@@H](CCCNC(=N)N)C(=O)N[C@H](C(=O)N[C@H](C(=O)N[C@@H](CCSC)C(=O)N[C@@H](CCCNC(=N)N)C(=O)O)[C@@H](C)O)[C@@H](C)O [CG 198-223] (H-GKSSGVPPEVFTRFVSSFLPWIRTTMR-OH; N-terminus and C-terminus assumed),Log Kill (500 μg/ml) P. aeruginosa ATCC 278533,P. aeruginosa ATCC 27853,5.73 log
same,Log Kill (500 μg/ml) S. aureus strain 8325-4,S. aureus strain 8325-4 [1],0.26 log
same,killing of P. aeruginosa clinical strains (in words),[2],some variability in effectiveness
"O=C(N[C@H](CO)[C@H](O)c1ccc([N+](=O)[O-])cc1)C(Cl)Cl [Chloramphenicol, reference compound]",bactericidal capacity compared with antibiotics and defensin pool (in words),"[3]; N. gonorrhoeae strain FA 102, each compound 5.0×10^-4 M, 30 min at 37° C., FIG. 5",more effective at this concentration than the defensin pool or the test peptides
N=C(N)NCCC[C@H](NC(=O)[C@H](CCC(N)=O)NC(=O)[C@H](CC(N)=O)NC(=O)[C@H](Cc1ccc(O)cc1)NC(=O)[C@H](CCC(N)=O)NC(=O)[C@@H]1CCCN1C(=O)[C@@H](N)Cc1c[nH]cn1)C(=O)O [HPQYNQR] (H-HPQYNQR-OH),ED50 for N. gonorrhoeae,[3],50 µM
enzymatically active Cat G: cathepsin G purified from extracts of human PMN granules,Log Reduction in CFU/ml S. aureus,S. aureus,2.82 log
same,Log Reduction in CFU/ml P. aeruginosa,P. aeruginosa,2.41 log
same,ED50 for S. aureus,"S. aureus strain 8325-4 [4]; HBSS, optimal conditions",4 µM
H^Benzyl PQYNQR,% Survival of S. aureus,S. aureus strain 8325-4 [4],99.0%
H^3m PQYNQR,% Survival of S. aureus,S. aureus strain 8325-4 [4],18.3%
